# Results as given in ChEMBL document CHEMBL4418299, “Compounds useful as csf1 modulators” (2016).
# Target: Macrophage colony-stimulating factor 1 receptor (Homo sapiens, UniProt P07333)
# Test: Displacement of kinase tracer 236 from recombinant human His-tagged CSF1R cytoplasmic domain (538 to 910 residues) expressed in baculovirus-infected insect cells measured after 5 hrs by TR-FRET based LanthaScreen assay
# Chain of Macrophage colony-stimulating factor 1 receptor (P07333 whole entry, the tested form may be a part): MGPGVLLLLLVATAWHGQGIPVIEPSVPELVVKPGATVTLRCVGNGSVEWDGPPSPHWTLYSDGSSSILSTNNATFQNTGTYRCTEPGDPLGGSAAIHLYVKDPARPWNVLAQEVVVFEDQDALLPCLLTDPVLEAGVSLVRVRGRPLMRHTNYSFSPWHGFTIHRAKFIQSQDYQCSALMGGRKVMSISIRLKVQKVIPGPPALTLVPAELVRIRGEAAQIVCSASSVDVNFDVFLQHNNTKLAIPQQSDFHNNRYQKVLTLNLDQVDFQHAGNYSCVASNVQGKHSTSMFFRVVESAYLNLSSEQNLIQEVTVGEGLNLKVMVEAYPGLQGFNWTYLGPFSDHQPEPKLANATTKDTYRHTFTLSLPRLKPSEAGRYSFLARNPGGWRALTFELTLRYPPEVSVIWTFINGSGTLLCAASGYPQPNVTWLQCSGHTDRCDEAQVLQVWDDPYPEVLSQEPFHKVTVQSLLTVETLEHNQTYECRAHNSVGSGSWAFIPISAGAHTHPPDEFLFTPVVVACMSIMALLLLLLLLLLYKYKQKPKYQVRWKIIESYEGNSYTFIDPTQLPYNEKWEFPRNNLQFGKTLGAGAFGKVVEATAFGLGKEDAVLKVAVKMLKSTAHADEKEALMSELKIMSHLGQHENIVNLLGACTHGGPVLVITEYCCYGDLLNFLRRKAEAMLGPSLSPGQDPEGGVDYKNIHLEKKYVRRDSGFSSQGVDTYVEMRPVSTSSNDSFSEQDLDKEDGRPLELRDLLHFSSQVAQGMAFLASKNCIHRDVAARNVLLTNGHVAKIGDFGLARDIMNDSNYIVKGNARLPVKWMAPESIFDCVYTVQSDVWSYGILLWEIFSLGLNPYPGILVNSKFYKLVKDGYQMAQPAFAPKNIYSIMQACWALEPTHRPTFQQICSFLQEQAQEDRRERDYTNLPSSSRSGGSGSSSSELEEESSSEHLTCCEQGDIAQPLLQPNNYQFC
row,SMILES,IC50
1,Nc1ncnc2c3c(n(-c4ccc(NC(=O)Cc5cnn(-c6ccccc6)c5)cc4)c12)CCC3,0.01 to 0.2 µM
2,Nc1ncnc2c3c(n(-c4ccc(NC(=O)C(F)c5ccccc5)cc4)c12)CCC3 (stereo not drawn),> 0.2 µM
3,Cc1ccc(F)c(CC(=O)Nc2ccc(-n3c4c(c5ncnc(N)c53)COC4)cc2F)c1,> 0.2 µM
4,COc1cc(-n2c3c(c4ncnc(N)c42)CCC3)ccc1NC(=O)Cc1ccc(C(F)(F)F)nc1,< 0.01 µM
5,COc1cc(-n2c3c(c4ncnc(N)c42)CCC3)ccc1CC(=O)N1CCOc2ccccc21,< 0.01 µM
6,COc1ccc(CC(=O)Nc2ccc(-n3c4c(c5ncnc(N)c53)CCC4)cc2OC)nc1,0.01 to 0.2 µM
7,COc1cc(-n2c3c(c4ncnc(N)c42)COC3)ccc1NC(=O)Cc1nccc(C(F)(F)F)n1,> 0.2 µM
8,COc1cc(-n2c3c(c4ncnc(N)c42)CCC3)ccc1NC(=O)Cc1nccc(C(F)(F)F)n1,0.01 to 0.2 µM
9,Nc1ncnc2c3c(n(-c4ccc(NC(=O)Cc5ccnc(C(F)(F)F)c5)cc4)c12)COC3,0.01 to 0.2 µM
10,COc1cc(-n2c3c(c4ncnc(N)c42)CCC3)ccc1NC(=O)Cc1ccnc(C(F)(F)F)n1,0.01 to 0.2 µM
11,COc1cc(-n2c3c(c4ncnc(N)c42)COC3)ccc1NC(=O)CN1C(=O)COc2ccccc21,> 0.2 µM
12,COc1cc(-n2c3c(c4ncnc(N)c42)COC3)ccc1NC(=O)Cc1cc(C)ccc1F,0.01 to 0.2 µM
13,COc1ccc(CC(=O)Nc2ccc(-n3c4c(c5ncnc(N)c53)COC4)cc2)c(F)c1,0.01 to 0.2 µM
14,Nc1ncnc2c3c(n(-c4ccc(CC(=O)Nc5cnc(C(F)(F)F)nc5)cc4)c12)CCC3,0.01 to 0.2 µM
15,Nc1ncnc2c3c(n(-c4ccc(NC(=O)Cc5ccc(Cl)c(C(F)(F)F)c5)cc4)c12)CCC3,0.014 µM
16,COc1cc(-n2c3c(c4ncnc(N)c42)COC3)ccc1NC(=O)Cc1ccc(C(F)(F)F)nc1,0.01 to 0.2 µM
17,Nc1ncnc2c3c(n(-c4ccc(NC(=O)Cc5coc(-c6ccccc6)n5)cc4)c12)CCC3,0.01 to 0.2 µM
18,COc1cc(CC(=O)Nc2ccc(-n3c4c(c5ncnc(N)c53)CCC4)cc2OC)ccc1C,< 0.01 µM
19,Nc1ncnc2c3c(n(-c4ccc(NC(=O)Cc5cc(C(F)(F)F)ccc5Cl)cc4)c12)CCC3,0.01 to 0.2 µM
20,COc1cc(-n2c3c(c4ncnc(N)c42)CCC3)ccc1NC(=O)Cc1ccc(Cl)c(C(F)(F)F)c1,0.01 to 0.2 µM
21,COc1cc(-n2c3c(c4ncnc(N)c42)COC3)ccc1NC(=O)Cc1ccccc1,< 0.01 µM
22,Nc1ncnc2c3c(n(-c4ccc(CC(=O)NCc5ccccc5)cc4)c12)CCC3,0.01 to 0.2 µM
23,CN1CCN(CC(=O)Nc2ccc(-n3c4c(c5ncnc(N)c53)CCC4)cc2)CC1,> 0.2 µM
24,Nc1ncnc2c3c(n(-c4ccc(NC(=O)Cc5ccccc5)nc4)c12)CCC3,> 0.2 µM

row,SMILES,IC50
1,COc1ccccc1CC(=O)Nc1ccc(-n2c3c(c4ncnc(N)c42)CCC3)cc1,< 0.01 µM
2,COc1cc(-n2c3c(c4ncnc(N)c42)COC3)ccc1NC(=O)Cc1cnc2c(ccn2C)c1,0.032 µM
3,COc1cc(-n2c3c(c4ncnc(N)c42)CCC3)ccc1CC(=O)Nc1ccccc1,0.01 to 0.2 µM
4,Nc1ncnc2c3c(n(-c4ccc(CC(=O)Nc5cccnc5)cc4)c12)CCC3,> 0.2 µM
5,COc1ccc(CC(=O)Nc2ccc(-n3c4c(c5ncnc(N)c53)COC4)cc2F)c(F)c1,> 0.2 µM
6,Nc1ncnc2c3c(n(-c4ccc(NC(=O)Cc5ccc(C(F)(F)F)nc5)cc4)c12)COC3,0.01 to 0.2 µM
7,Cc1ccc(CC(=O)Nc2ccc(-n3c4c(c5ncnc(N)c53)COC4)cc2)cc1F,0.01 to 0.2 µM
8,COc1cc(-n2c3c(c4ncnc(N)c42)CCC3)ccc1NC(=O)Cc1ccnc(C(F)(F)F)c1,< 0.01 µM
9,Nc1ncnc2c3c(n(-c4ccc(NC(=O)Cc5ccc(O)cc5)cc4)c12)CCC3,0.029 µM
10,COc1cc(-n2c3c(c4ncnc(N)c42)CCC3)ccc1NC(=O)CN1C(=O)COc2ccccc21,0.01 to 0.2 µM
11,COc1cc(-n2c3c(c4ncnc(N)c42)CCC3)ccc1NC(=O)Cc1ccccn1,< 0.01 µM
12,COc1cc(-n2c3c(c4ncnc(N)c42)CCC3)ccc1NC(=O)Cc1cnccn1,> 0.2 µM
13,Cn1cc(CCC(=O)Nc2ccc(-n3c4c(c5ncnc(N)c53)CCC4)cc2)c2ccccc21,0.01 to 0.2 µM
14,COc1ccc(NC(=O)Cc2ccc(-n3c4c(c5ncnc(N)c53)CCC4)cc2)nn1,> 0.2 µM
15,Cn1ccc2cc(CC(=O)Nc3ccc(-n4c5c(c6ncnc(N)c64)CCC5)cc3)cnc21,< 0.01 µM
16,COc1cc(-n2c3c(c4ncnc(N)c42)CCC3)ccc1CC(=O)Nc1cc(C)ccc1F,< 0.01 µM
17,NC(=O)c1ccc(CC(=O)Nc2ccc(-n3c4c(c5ncnc(N)c53)CCC4)cc2)cc1C(F)(F)F,0.01 to 0.2 µM
18,COc1cccc(CC(=O)Nc2ccc(-n3c4c(c5ncnc(N)c53)CCC4)cc2OC)n1,0.01 to 0.2 µM
19,CN(C)c1cc(CC(=O)Nc2ccc(-n3c4c(c5ncnc(N)c53)CCC4)cc2)ccc1C(F)(F)F,0.01 to 0.2 µM
20,Nc1ncnc2c3c(n(-c4ccc(NC(=O)CCCN5CCOCC5)cc4)c12)CCC3,0.01 to 0.2 µM
21,COc1cc(-n2c3c(c4ncnc(N)c42)COC3)ccc1NC(=O)CN1CCOc2ccccc21,> 0.2 µM
22,COc1cc(-n2c3c(c4ncnc(N)c42)CCC3)ccc1CC(=O)Nc1ccc(C(F)(F)F)cn1,< 0.01 µM
23,COc1ccc(NC(=O)Cc2ccc(-n3c4c(c5ncnc(N)c53)CCC4)cc2OC)c(F)c1,< 0.01 µM
24,COc1cc(-n2c3c(c4ncnc(N)c42)COC3)ccc1NC(=O)Cc1cc(C(F)(F)F)ccc1F,0.01 to 0.2 µM

row,SMILES,IC50
1,COc1cc(-n2c3c(c4ncnc(N)c42)COC3)ccc1NC(=O)Cc1ccnc(C(F)(F)F)n1,> 0.2 µM
2,Nc1ncnc2c3c(n(-c4ccc(NC(=O)Cc5c(F)cc(Cl)cc5F)cc4)c12)CCC3,0.01 to 0.2 µM
3,N#Cc1ccc(CC(=O)Nc2ccc(-n3c4c(c5ncnc(N)c53)CCC4)cc2)cc1,< 0.01 µM
4,Nc1ncnc2c3c(n(-c4ccc(NC(=O)CC5CCN(C(=O)OCc6ccccc6)CC5)cc4)c12)CCC3,0.01 to 0.2 µM
5,COc1cc(-n2c3c(c4ncnc(N)c42)CCC3)ccc1NC(=O)Cc1ccc(C(F)(F)F)nn1,0.009 µM
6,Nc1ncnc2c3c(n(-c4ccc(NC(=O)Cc5cccnc5)cc4)c12)CCC3,0.01 to 0.2 µM
7,COc1cc(-n2c3c(c4ncnc(N)c42)CCC3)ccc1NC(=O)Cc1cc(C(F)(F)F)ccc1F,0.01 to 0.2 µM
8,Nc1ncnc2c3c(n(-c4ccc(NC(=O)Cc5ccccc5)c(F)c4)c12)CCC3,> 0.2 µM
9,COc1cc(-n2c3c(c4ncnc(N)c42)CCC3)ccc1NC(=O)Cc1ccccc1,0.01 to 0.2 µM
10,COc1cc(-n2c3c(c4ncnc(N)c42)COC3)ccc1NC(=O)Cc1ccnc(C(F)(F)F)c1,0.05 µM
11,COc1cc(-n2c3c(c4ncnc(N)c42)CCC3)ccc1CC(=O)Nc1ccc(C(F)(F)F)nc1,< 0.01 µM
12,COc1cc(-n2c3c(c4ncnc(N)c42)CCC3)ccc1NC(=O)Cc1ccc2c(ccn2C)c1,< 0.01 µM
13,Cn1ccc(CC(=O)Nc2ccc(-n3c4c(c5ncnc(N)c53)CCC4)cc2)n1,> 0.2 µM
14,Nc1ncnc2c3c(n(-c4ccc(NC(=O)[C@@H](N)Cc5ccccc5)cc4)c12)CCC3,> 0.2 µM
15,COc1cc(-n2c3c(c4ncnc(N)c42)CCC3)ccc1NC(=O)Cc1ccc(C)cc1F,< 0.01 µM
16,Nc1ncnc2c3c(n(-c4ccc(NC(=O)Cc5ccc6c(c5)OCO6)cc4)c12)CCC3,0.01 to 0.2 µM
17,Nc1ncnc2c3c(n(-c4ccc(CC(=O)NC5CCCCC5)cc4)c12)CCC3,0.01 to 0.2 µM
18,COc1ccc(CC(=O)Nc2ccc(-n3c4c(c5ncnc(N)c53)CCC4)cc2OC)cn1,0.01 to 0.2 µM
19,COc1ccc(CC(=O)Nc2ccc(-n3c4c(c5ncnc(N)c53)COC4)cc2)cc1F,0.014 µM
20,COc1cc(-n2c3c(c4ncnc(N)c42)CCC3)ccc1NC(=O)Cc1cc(C)no1,0.01 to 0.2 µM
21,Cc1cnc(CC(=O)Nc2ccc(-n3c4c(c5ncnc(N)c53)CCC4)cc2)c(F)c1,0.01 to 0.2 µM
22,COc1ccc(CC(=O)Nc2ccc(-n3c4c(c5ncnc(N)c53)CCC4)cc2OC)cc1C,< 0.01 µM
23,COc1cc(-n2c3c(c4ncnc(N)c42)CCC3)ccc1NC(=O)Cc1ccc(C)c(F)c1,< 0.01 µM
24,Nc1ncnc2c3c(n(-c4ccc(NC(=O)Cc5ccccc5)cc4)c12)COC3,< 0.01 µM

row,SMILES,IC50
1,COc1cc(-n2c3c(c4ncnc(N)c42)CCC3)ccc1NC(=O)Cc1cnc2c(ccn2C)c1,< 0.01 µM
2,COc1cc(-n2c3c(c4ncnc(N)c42)COC3)ccc1NC(=O)Cc1ccc(Cl)c(C(F)(F)F)c1,< 0.01 µM
3,COc1ccc(CC(=O)Nc2ccc(-n3c4c(c5ncnc(N)c53)COC4)cc2OC)cn1,0.01 to 0.2 µM
4,COc1cc(-n2c3c(c4ncnc(N)c42)CCC3)ccc1NC(=O)Cc1ncc(C)cc1F,0.01 to 0.2 µM
5,COc1ccc(CC(=O)Nc2ccc(-n3c4c(c5ncnc(N)c53)COC4)cc2OC)cc1F,0.01 to 0.2 µM
6,Nc1ncnc2c3c(n(-c4ccc(NC(=O)Cc5ccncc5)cc4)c12)CCC3,> 0.2 µM
7,Nc1ncnc2c3c(n(-c4ccc(NC(=O)CN5CCCC5)cc4)c12)CCC3,> 0.2 µM
8,Nc1ncnc2c3c(n(-c4ccc(NC(=O)Cc5ccc(C(F)(F)F)nn5)cc4)c12)COC3,0.01 to 0.2 µM
9,COc1cc(-n2c3c(c4ncnc(N)c42)CCC3)ccc1NC(=O)Cc1coc(-c2ccccc2)n1,0.01 to 0.2 µM
10,CC(=O)N1CCC(CC(=O)Nc2ccc(-n3c4c(c5ncnc(N)c53)CCC4)cc2)CC1,> 0.2 µM
11,Nc1ncnc2c3c(n(-c4ccc(NC(=O)CN5CCOCC5)cc4)c12)CCC3,> 0.2 µM
12,Nc1ncnc2c3c(n(-c4ccc(NC(=O)Cn5ccnc5)cc4)c12)CCC3,> 0.2 µM
13,Nc1ncnc2c3c(n(-c4ccc(NC(=O)CCc5ccccc5)cc4)c12)CCC3,0.01 to 0.2 µM
14,Nc1ncnc2c3c(n(-c4ccc(NC(=O)Cc5ccc(Cl)nn5)cc4)c12)COC3,> 0.2 µM
15,COc1ccc(CC(=O)Nc2ccc(-n3c4c(c5ncnc(N)c53)CCC4)cc2OC)cc1F,< 0.01 µM
16,COc1cc(-n2c3c(c4ncnc(N)c42)COC3)ccc1NC(=O)Cc1ccc(OC)c(C(F)(F)F)c1,< 0.01 µM
17,COc1cc(-n2c3c(c4ncnc(N)c42)COC3)ccc1NC(=O)Cc1ccc(C(F)(F)F)nn1,0.01 to 0.2 µM
18,Cn1cc(CC(=O)Nc2ccc(-n3c4c(c5ncnc(N)c53)CCC4)cc2)cn1,0.01 to 0.2 µM
19,Nc1ncnc2c3c(n(-c4ccc(NC(=O)[C@@H](N)c5ccccc5)cc4)c12)CCC3,> 0.2 µM
20,COc1cccc(CC(=O)Nc2ccc(-n3c4c(c5ncnc(N)c53)CCC4)cc2)n1,0.01 to 0.2 µM
21,Cn1cc(C(=O)Nc2ccc(-n3c4c(c5ncnc(N)c53)CCC4)cc2)c2ccccc21,0.01 to 0.2 µM
